Relative viability data for seven cell lines are collected here from the supplement of paper PMC10307832.

What all share (assay): relative viability (nuclei count vs DMSO), 5 days (fraction); higher = more cells survive
Compound in experiment [1]: C1=CC=C(C(=C1)C2=CC=C(C=C2)C3=CSC4=C3C(=C(C(=O)N4)C#N)O)O + Cc1nc(Nc2ncc(C(=O)Nc3c(C)cccc3Cl)s2)cc(N2CCN(CCO)CC2)n1 [Dasatinib] (partner 0.075 µM)
The procedure, abridged: (§1)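 Lung cancer cell lines were seeded in 1536-well plates and dosed by pin tool the next day, with either a single drug or a fixed anchor-drug dose combined with five library-drug doses (not always all listed) spaced in √10 steps. Five days later, one step fixed the cells and stained their nuclei (final 0.05% Triton X-100, 1% formaldehyde, 1 ug/ml Hoechst), and nuclei were counted on 4× images. Relative viability is the nuclei count in treated wells divided by the count in vehicle wells, and each value is the median of duplicate plates.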

Compound in the experiment “TGX 221 + Palbociclib”: CC1=CN2C(=O)C=C(N=C2C(=C1)C(C)NC3=CC=CC=C3)N4CCOCC4 [TGX 221] + CC(=O)c1c(C)c2cnc(Nc3ccc(N4CCNCC4)cn3)nc2n(C2CCCC2)c1=O [Palbociclib] (partner 0.5 µM)
The procedure, abridged:
as §1

Compound in the experiment “TGX 221 + Navitoclax”: CC1=CN2C(=O)C=C(N=C2C(=C1)C(C)NC3=CC=CC=C3)N4CCOCC4 [TGX 221] + CC1(C)CCC(c2ccc(Cl)cc2)=C(CN2CCN(c3ccc(C(=O)NS(=O)(=O)c4ccc(N[C@H](CCN5CCOCC5)CSc5ccccc5)c(S(=O)(=O)C(F)(F)F)c4)cc3)CC2)C1 [Navitoclax] (partner 0.5 µM)
The procedure, abridged:
as §1

Compound in the experiment “Ricolinostat + AZD7762”: O=C(CCCCCCNC(=O)c1cnc(N(c2ccccc2)c2ccccc2)nc1)NO [Ricolinostat] + NC(=O)Nc1cc(-c2cccc(F)c2)sc1C(=O)N[C@H]1CCCNC1 [AZD7762] (partner 0.2 µM)
The procedure, abridged:
as §1

For EPLC-272H, the relative viability turned out to be 0.311 in experiment [1] (first compound 0.08 µM); 0.306 in experiment [1] (first compound 0.253 µM); 0.339 in experiment [1] (first compound 0.8 µM); 0.407 in experiment [1] (first compound 2.53 µM); 0.303 in experiment [1] (first compound 8 µM); 0.324 with TGX 221 + Palbociclib (first compound 0.08 µM). In addition, the relative viability with TGX 221 + Palbociclib (first compound 0.253 µM) was determined as 0.35; in the experiment with TGX 221 + Palbociclib (first compound 0.8 µM), 0.32; in the experiment with TGX 221 + Palbociclib (first compound 2.53 µM), 0.328; with TGX 221 + Palbociclib (first compound 8 µM) it was 0.289; with TGX 221 + Navitoclax (first compound 0.08 µM), 1.1; with TGX 221 + Navitoclax (first compound 0.253 µM), 1.17. For the same cell line, the relative viability in the experiment with TGX 221 + Navitoclax (first compound 0.8 µM) came out at 1.19; with TGX 221 + Navitoclax (first compound 8 µM) it was 1.29; with Ricolinostat + AZD7762 (first compound 0.253 µM), 0.194; in the experiment with Ricolinostat + AZD7762 (first compound 0.8 µM), 0.178; with Ricolinostat + AZD7762 (first compound 2.53 µM), 0.141.
As to H3255, the relative viability in experiment [1] (first compound 0.08 µM) is 0.369; in experiment [1] (first compound 0.253 µM), 0.352; in experiment [1] (first compound 0.8 µM), 0.255; in experiment [1] (first compound 2.53 µM), 0.39; in experiment [1] (first compound 8 µM) it was 0.35; in the experiment with TGX 221 + Palbociclib (first compound 0.08 µM), 0.312. Further, the relative viability with TGX 221 + Palbociclib (first compound 0.253 µM) was found to be 0.342; in the experiment with TGX 221 + Palbociclib (first compound 0.8 µM), 0.331; with TGX 221 + Palbociclib (first compound 2.53 µM), 0.29; in the experiment with TGX 221 + Palbociclib (first compound 8 µM), 0.321; in the experiment with TGX 221 + Navitoclax (first compound 0.08 µM) it was 0.486; with TGX 221 + Navitoclax (first compound 0.253 µM), 0.49. The relative viability in the experiment with TGX 221 + Navitoclax (first compound 0.8 µM) stood at 0.515; with TGX 221 + Navitoclax (first compound 2.53 µM) it was 0.553; in the experiment with TGX 221 + Navitoclax (first compound 8 µM), 0.601; in the experiment with Ricolinostat + AZD7762 (first compound 0.08 µM), 0.717; with Ricolinostat + AZD7762 (first compound 0.253 µM) it was 0.759; in the experiment with Ricolinostat + AZD7762 (first compound 0.8 µM), 0.75. Also, the relative viability with Ricolinostat + AZD7762 (first compound 2.53 µM) worked out at 0.849.
Consider HARA, for which the relative viability in experiment [1] (first compound 0.08 µM) amounted to 0.241; in experiment [1] (first compound 0.253 µM) it was 0.228; in experiment [1] (first compound 0.8 µM), 0.346; in experiment [1] (first compound 2.53 µM), 0.292; in experiment [1] (first compound 8 µM), 0.192; with TGX 221 + Palbociclib (first compound 0.08 µM), 0.264. Moreover, the relative viability with TGX 221 + Palbociclib (first compound 0.253 µM) stood at 0.28; with TGX 221 + Palbociclib (first compound 0.8 µM), 0.268; with TGX 221 + Palbociclib (first compound 2.53 µM) it was 0.232; in the experiment with TGX 221 + Palbociclib (first compound 8 µM), 0.246; with TGX 221 + Navitoclax (first compound 0.08 µM) it was 1.18; in the experiment with TGX 221 + Navitoclax (first compound 0.253 µM), 1.13. Moreover, the relative viability with TGX 221 + Navitoclax (first compound 0.8 µM) amounted to 1.03; with TGX 221 + Navitoclax (first compound 2.53 µM) it was 1.13; in the experiment with TGX 221 + Navitoclax (first compound 8 µM), 1.11; in the experiment with Ricolinostat + AZD7762 (first compound 0.08 µM), 0.35; with Ricolinostat + AZD7762 (first compound 0.253 µM) it was 0.256; with Ricolinostat + AZD7762 (first compound 0.8 µM) it was 0.184. The relative viability with Ricolinostat + AZD7762 (first compound 2.53 µM) came out at 0.236.
Regarding HCC-15, the relative viability in experiment [1] (first compound 0.08 µM) stood at 0.522; in experiment [1] (first compound 0.253 µM), 0.627; in experiment [1] (first compound 0.8 µM), 0.601; in experiment [1] (first compound 2.53 µM), 0.673; in experiment [1] (first compound 8 µM), 0.61; with TGX 221 + Palbociclib (first compound 0.08 µM), 0.497. Also, the relative viability is 0.663 with TGX 221 + Palbociclib (first compound 0.253 µM); 0.718 with TGX 221 + Palbociclib (first compound 0.8 µM); 0.635 with TGX 221 + Palbociclib (first compound 2.53 µM); 0.724 with TGX 221 + Palbociclib (first compound 8 µM); 0.745 in the experiment with TGX 221 + Navitoclax (first compound 0.08 µM); 0.642 in the experiment with TGX 221 + Navitoclax (first compound 0.253 µM). The relative viability with TGX 221 + Navitoclax (first compound 0.8 µM) was found to be 0.579; with TGX 221 + Navitoclax (first compound 2.53 µM), 0.67; in the experiment with TGX 221 + Navitoclax (first compound 8 µM) it was 0.642; in the experiment with Ricolinostat + AZD7762 (first compound 0.08 µM) it was 1.09; in the experiment with Ricolinostat + AZD7762 (first compound 0.253 µM) it was 1.11; with Ricolinostat + AZD7762 (first compound 0.8 µM) it was 1.37. Also, in the experiment with Ricolinostat + AZD7762 (first compound 2.53 µM), the relative viability worked out at 1.29.
Take HCC-44: the relative viability with TGX 221 + Palbociclib (first compound 0.08 µM) is 1.02; with TGX 221 + Palbociclib (first compound 0.253 µM), 1.01; with TGX 221 + Palbociclib (first compound 0.8 µM) it was 1; with TGX 221 + Palbociclib (first compound 2.53 µM) it was 0.933; with TGX 221 + Palbociclib (first compound 8 µM), 0.991; with TGX 221 + Navitoclax (first compound 0.08 µM), 0.992. The relative viability with TGX 221 + Navitoclax (first compound 0.253 µM) was found to be 0.981; with TGX 221 + Navitoclax (first compound 0.8 µM), 0.918; with TGX 221 + Navitoclax (first compound 2.53 µM) it was 0.837; with TGX 221 + Navitoclax (first compound 8 µM), 0.732; with Ricolinostat + AZD7762 (first compound 0.08 µM) it was 1.05; with Ricolinostat + AZD7762 (first compound 0.253 µM), 0.972. The relative viability is 0.993 in the experiment with Ricolinostat + AZD7762 (first compound 0.8 µM) and 1.05 in the experiment with Ricolinostat + AZD7762 (first compound 2.53 µM).
As to HCC-78, the relative viability in experiment [1] (first compound 0.08 µM) was 0.354; in experiment [1] (first compound 0.253 µM) it was 0.388; in experiment [1] (first compound 0.8 µM), 0.327; in experiment [1] (first compound 2.53 µM), 0.363; in experiment [1] (first compound 8 µM) it was 0.239; with TGX 221 + Palbociclib (first compound 0.253 µM), 0.428. The relative viability stood at 0.464 in the experiment with TGX 221 + Palbociclib (first compound 0.8 µM); 0.397 in the experiment with TGX 221 + Palbociclib (first compound 2.53 µM); 0.435 with TGX 221 + Palbociclib (first compound 8 µM); 0.654 in the experiment with TGX 221 + Navitoclax (first compound 0.08 µM); 0.665 with TGX 221 + Navitoclax (first compound 0.253 µM); 0.457 in the experiment with TGX 221 + Navitoclax (first compound 2.53 µM). In addition, the relative viability is 0.487 with TGX 221 + Navitoclax (first compound 8 µM), 0.718 in the experiment with Ricolinostat + AZD7762 (first compound 0.253 µM), 0.453 in the experiment with Ricolinostat + AZD7762 (first compound 0.8 µM) and 0.2 in the experiment with Ricolinostat + AZD7762 (first compound 2.53 µM).
Turning to HCC-366, the relative viability in experiment [1] (first compound 0.08 µM) stood at 0.505; in experiment [1] (first compound 0.253 µM), 0.844; in experiment [1] (first compound 0.8 µM), 0.64; in experiment [1] (first compound 2.53 µM), 0.737; in experiment [1] (first compound 8 µM), 0.353; with TGX 221 + Palbociclib (first compound 0.08 µM), 0.387. For the same cell line, the relative viability with TGX 221 + Palbociclib (first compound 0.253 µM) worked out at 0.358; with TGX 221 + Palbociclib (first compound 0.8 µM), 0.418; with TGX 221 + Palbociclib (first compound 2.53 µM) it was 0.368; with TGX 221 + Palbociclib (first compound 8 µM) it was 0.297; with TGX 221 + Navitoclax (first compound 0.08 µM), 1.03; in the experiment with TGX 221 + Navitoclax (first compound 0.253 µM) it was 0.927. Besides, the relative viability with TGX 221 + Navitoclax (first compound 0.8 µM) is 0.916; in the experiment with TGX 221 + Navitoclax (first compound 2.53 µM), 1.07; with TGX 221 + Navitoclax (first compound 8 µM), 0.914; with Ricolinostat + AZD7762 (first compound 0.08 µM), 0.266; in the experiment with Ricolinostat + AZD7762 (first compound 0.253 µM), 0.27; in the experiment with Ricolinostat + AZD7762 (first compound 0.8 µM), 0.264. Moreover, the relative viability with Ricolinostat + AZD7762 (first compound 2.53 µM) is 0.172.
